# pIC50: −log10 of the molar value. Several values for one entry are separate records, joined by “and”; a condition that tells them apart may be missing. Equal values may be shown once.
# Key:
# [1] = test system: LPS-induced TNF production; set-up: species or system C57BL/6 mice; settings: mouse, iv
# mouse macrophages = assay: cells; format: cell-based, C57BL/6 mouse; settings: for inhibition of LPS-induced TNF production: mouse macrophages, LPS 10 ng/ml, in words
# guinea pig macrophages = assay: cells; format: cell-based, Hartley-White guinea pig; settings: for inhibition of LPS-induced TNF production: guinea pig macrophages, LPS 10 ng/ml, in words
# human monocytes = assay: In vitro inhibition of LPS-induced TNF production in human monocytes (ELISA); format: cell-based; settings: Monocyte, E. coli 0111:B4 LPS 10 ng/ml, 3 h, read-out: ED50 for inhibition of LPS-induced production of TNF
# Procedure: Both bacterial LPS and bacterial lipid A elicit production of tumor necrosis factor (TNF) and IL-1β in cultured human monocytes (J. Immunol. 139:429, 1987).
# Monocytes were isolated from human blood by Percoll density gradient centrifugation, plated at approximately 1×10^6 cells/well on a 48-well plate in RPMI 1640 medium (GIBCO, Grand Island, N.Y.) containing 10% human serum (Sigma Chemical Co., St. Louis, Mo.) and incubated for two to three hours. Bacterial LPS (i.e., from E. coli 0111:B4; Sigma Chemicals, St. Louis, Mo.) at 10 ng/ml or lipid A (Daiichi Chemicals, Tokyo, Japan) at 1.0 ng/ml in RPMI 1640 medium were combined with 0.45 ml of RPMI 1640 medium containing 1% human serum and added to the cultured monocytes. In experiments involving a lipid A analog, the analog was added immediately before addition of LPS or lipid A in varying concentrations (e.g., between 0 and 100 μM in a 50 μl aliquot). Following a three-hour incubation period, a 0.1 ml aliquot of the culture supernatant was assayed for the presence of TNF and IL-1β. TNF and IL-1β were assayed using the ELISA assay of R & D Systems (Minneapolis, Minn.) and the instructions of the manufacturer, however, any other standard ELISA kits may be utilized, for example, the kit available from Genzyme, Cambridge, Mass. Experiments were performed in triplicate.
# HIV LTR = assay: Suppression of LPS-stimulated HIV LTR activation in stably transfected U938 cell line (HIV-1 LTR-CAT); settings: Human immunodeficiency virus 1, 24 h, read-out: IC50 for suppression of LPS-stimulated HIV LTR activation
# Procedure: Experiments were carried out using one such stably-transfected cell line, i.e., the U938 cell line of Latham et al. (Cell. Immunol. 129:513, 1990). Cells were cultured as described in Latham et al. (1990, supra), and 10^6 cells were treated with a lipid A analog (at a concentration of between 0.0 and 1.0 μM). Thirty minutes after addition of the analog, cells were treated with phorbol myristate acetate (at a concentration of 0.33 ng/ml; described above) and E. coli 0111:B4 LPS (at a concentration of 33 ng/ml; described above). Cells were cultured for an additional 24 hours, harvested, and assayed for CAT activity as described above.
# [2] = test system: LPS-induced TNF production; assay: In vivo inhibition of LPS-induced TNF production in guinea pigs; settings: optimum ED50's
SMILES,inhibition of TNF production in vivo [1],inhibition of LPS-induced TNF production (mouse macrophages),inhibition of LPS-induced TNF production (guinea pig macrophages),also measured
CCCCCC/C=C\CCCC(=O)O[C@H](CCCCCCC)CC(=O)O[C@@H]1[C@@H](NC(=O)CC(=O)CCCCCCCCCCC)[C@H](OC[C@H]2O[C@H](OP(=O)(O)O)[C@H](NC(=O)CC(=O)CCCCCCCCCCC)[C@@H](OC(=O)C[C@H](O)CCCCCCC)[C@@H]2O)O[C@H](CO)[C@H]1OP(=O)(O)O [Analog B214-33],inhibited TNF production,,,
CCCCCC/C=C\CCCC(=O)O[C@H](CCCCCCC)CC(=O)O[C@@H]1[C@@H](NC(=O)CC(=O)CCCCCCCCCCC)[C@H](OC[C@H]2O[C@H](OP(=O)(O)O)[C@H](NC(=O)CC(=O)CCCCCCCCCCC)[C@@H](OCC[C@H](O)CCCCCCC)[C@@H]2O)O[C@H](CO)[C@H]1OP(=O)(O)O [Analog B410-32],inhibited TNF production,inhibited LPS-induced TNF production,inhibited LPS-induced TNF production,
CCCCCC/C=C\CCCC(=O)O[C@H](CCCCCCCC)CCO[C@@H]1[C@@H](NC(=O)CC(=O)CCCCCCCCCCC)[C@H](OC[C@H]2O[C@H](OP(=O)(O)O)[C@H](NC(=O)CC(=O)CCCCCCCCCCC)[C@@H](OCC[C@H](O)CCCCCCCC)[C@@H]2O)O[C@H](COC)[C@H]1OP(=O)(O)O [Analog B464-32],,inhibited LPS-induced TNF production,inhibited LPS-induced TNF production,
CCCCCC/C=C\CCCC(=O)O[C@H](CCCCCCC)CCO[C@@H]1[C@@H](NC(=O)C[S+]([O-])CCCCCCCCCCC)[C@H](OC[C@H]2O[C@H](OP(=O)(O)O)[C@H](NC(=O)C[S+]([O-])CCCCCCCCCCC)[C@@H](OCC[C@H](O)CCCCCCC)[C@@H]2O)O[C@H](CO)[C@H]1OP(=O)(O)O (stereo partly shown) [Analog B459-32],,inhibited LPS-induced TNF production,inhibited LPS-induced TNF production,
CCCCCC/C=C\CCCC(=O)O[C@H](CCCCCCC)CCO[C@@H]1[C@@H](NC(=O)CC(=O)CCCCCCCCCCC)[C@H](OC[C@H]2O[C@H](OP(=O)(O)O)[C@H](NC(=O)CC(=O)CCCCCCCCCCC)[C@@H](OCC[C@H](O)CCCCCCC)[C@@H]2OC(C)=O)O[C@H](COC)[C@H]1OP(=O)(O)O [Analog B718-35],,inhibited LPS-induced TNF production,inhibited LPS-induced TNF production,
CCCCCC/C=C\CCCC(=O)O[C@H](CCCCCCC)CC(=O)O[C@@H]1[C@@H](NC(=O)CC(=O)CCCCCCCCCCC)[C@@H](OC[C@H]2O[C@H](OP(=O)(O)O)[C@H](NC(=O)CC(=O)CCCCCCCCCCC)[C@@H](OC(=O)C[C@H](O)CCCCCCC)[C@@H]2O)O[C@H](CO)[C@H]1OP(=O)(O)O [Analog B426-32],inhibited TNF production,,,
CCCCCC/C=C\CCNC(=O)O[C@H](CCCCCCC)CC(=O)O[C@@H]1[C@@H](NC(=O)CC(=O)CCCCCCCCCCC)[C@H](OC[C@H]2O[C@H](OP(=O)(O)O)[C@H](NC(=O)CC(=O)CCCCCCCCCCC)[C@@H](OC(=O)C[C@H](O)CCCCCCC)[C@@H]2O)O[C@H](CO)[C@H]1OP(=O)(O)O [Analog B379-32],inhibited TNF production,,,
CCCCCC/C=C\CCCCO[C@H](CCCCCCC)CC(=O)O[C@@H]1[C@@H](NC(=O)CC(=O)CCCCCCCCCCC)[C@H](OC[C@H]2O[C@H](OP(=O)(O)O)[C@H](NC(=O)CC(=O)CCCCCCCCCCC)[C@@H](OC(=O)C[C@H](O)CCCCCCC)[C@@H]2O)O[C@H](CO)[C@H]1OP(=O)(O)O [Analog B294-32],inhibited TNF production,,,
CCCCCC/C=C\CCCC(=O)O[C@H](CCCCCCC)CC(=O)O[C@@H]1[C@@H](NC(=O)/C=C/CCCCCCCCCCC)[C@H](OC[C@H]2O[C@H](OP(=O)(O)O)[C@H](NC(=O)/C=C/CCCCCCCCCCC)[C@@H](OC(=O)C[C@H](O)CCCCCCC)[C@@H]2O)O[C@H](CO)[C@H]1OP(=O)(O)O [Analog B286-32],inhibited TNF production,,,
CCCCCC/C=C\CCCC(=O)O[C@H](CCCCCCC)CCO[C@@H]1[C@@H](NC(=O)CC(=O)CCCCCCCCCCC)[C@H](OC[C@H]2O[C@H](OP(=O)(O)O)[C@H](NC(=O)CC(=O)CCCCCCCCCCC)[C@@H](OCC[C@H](O)CCCCCCC)[C@@H]2O)O[C@H](COC)[C@H]1OP(=O)(O)O [Analog B531-35],,,,"pIC50 (mouse macrophages; Mus musculus, Macrophage, 3 h, read-out: ED50 for inhibition of LPS-induced TNF production): 8.65; pIC50 (guinea pig macrophages; Cavia porcellus, Macrophage, 3 h, read-out: ED50 for inhibition of LPS-induced TNF production): 9.18; pIC50 (human monocytes): ~10.70; ED50 for inhibition of TNF production in vivo [1]: 16.2 μg/mouse"
CCCCCC/C=C\CCCC(=O)O[C@H](CCCCCCC)CC(=O)O[C@@H]1[C@@H](NC(=O)CC(=O)CCCCCCCCCCC)[C@H](OC[C@H]2O[C@H](OP(=O)(O)O)[C@H](NC(=O)/C=C/CCCCCCCCCCC)[C@@H](OC(=O)C[C@H](O)CCCCCCC)[C@@H]2O)O[C@H](CO)[C@H]1OP(=O)(O)O [Analog B313-32],inhibited TNF production,,,
CCCCCC/C=C\CCCC(=O)O[C@H](CCCCCCC)CCO[C@@H]1[C@@H](NC(=O)CC(=O)CCCCCCCCCCC)[C@H](OC[C@H]2O[C@H](OP(=O)(O)O)[C@H](NC(=O)CC(=O)CCCCCCCCCCC)[C@@H](OCC[C@H](O)CCCCCCC)[C@@H]2O)O[C@H](CO)[C@H]1OP(=O)(O)O [Analog B427-32],,inhibited LPS-induced TNF production,inhibited LPS-induced TNF production,pIC50 (HIV LTR): 6.59 to 7.82
CCCCCC/C=C\CCCC(=O)O[C@H](CCCCCCC)CC(=O)O[C@@H]1[C@@H](NC(=O)CC(=O)CCCCCCCCCCC)[C@H](OC[C@H]2O[C@H](OP(=O)(O)O)[C@H](NC(=O)CC(=O)CCCCCCCCCCC)[C@@H](OC(=O)C[C@H](O)CCCCCCC)[C@@H]2O)O[C@H](CO)[C@H]1OP(=O)(O)O [Analog B214-31],inhibited TNF production,,,
CCCCCCC/C=C/C(=O)O[C@@H]1[C@@H](NC(=O)CC(=O)CCCCCCCCCCC)[C@H](OC[C@H]2O[C@H](OP(=O)(O)O)[C@H](NC(=O)CC(=O)CCCCCCCCCCC)[C@@H](OC(=O)C[C@H](O)CCCCCCC)[C@@H]2O)O[C@H](CO)[C@H]1OP(=O)(O)O [Analog B400-32],inhibited TNF production,,,pIC50 (HIV LTR): 6.59 to 7.82
CCCCCC/C=C\CCCC(=O)O[C@H](CCCCCCC)CC(=O)O[C@@H]1[C@@H](NC(=O)CS(=O)(=O)CCCCCCCCCCC)[C@H](OC[C@H]2O[C@H](OP(=O)(O)O)[C@H](NC(=O)CS(=O)(=O)CCCCCCCCCCC)[C@@H](OC(=O)C[C@H](O)CCCCCCC)[C@@H]2O)O[C@H](CO)[C@H]1OP(=O)(O)O [Analog B425-32],inhibited TNF production,,,
CCCCCC/C=C\CCCC(=O)O[C@H](CCCCCCC)CC(=O)O[C@@H]1[C@@H](NC(=O)CC(=O)CCCCCCCCCCC)[C@H](OC[C@H]2O[C@H](OP(=O)(O)O)[C@H](NC(=O)C[C@H](O)CCCCCCCCCCC)[C@@H](OC(=O)C[C@H](O)CCCCCCC)[C@@H]2O)O[C@H](CO)[C@H]1OP(=O)(O)O [Analog B218-32],inhibited TNF production,,,
CCCCCC/C=C\CCCC(=O)O[C@H](CCCCCCC)CC(=O)O[C@@H]1[C@@H](NC(=O)CC(=O)CCCCCCCCCCC)[C@H](OC[C@H]2O[C@H](OP(=O)(O)O)[C@H](NC(=O)CC(=O)CCCCCCCCCCC)[C@@H](OC(=O)C[C@H](O)CCCCCCC)[C@@H]2O)O[C@H](CO)[C@H]1OP(=O)(O)O [Analog B214-32],inhibited TNF production,inhibited LPS-induced TNF production,inhibited LPS-induced TNF production,optimum ED50 for inhibition of LPS-induced TNF production in vivo [2]: 7.5 μg/guinea pig and 5 μg/guinea pig

# Source: patent US5612476A, “Anti-endotoxin compounds” (priority 1995, dated 1997)
